Data on 32 compounds can be found in patent publication US9617225B2 (VIROSTATICS SRL, priority 2012, dated 2017).

The target in data set [1] is human CDK9/CyclinT kinase complex (Homo sapiens (Human), UniProt P50750). Nature of the data set: In Vitro CDK9/CyclinT Assay (IMAP fluorescent polarization). In kind it is biochemical. As to the method: In Vitro CDK9/CyclinT Assay
The activity of the compounds described in the present invention can be determined by measuring the phosphorylation of a fluorescently-labeled peptide by human CDK9/CyclinT kinase complex by fluorescent polarization using a commercially available IMAP Screening Express Assay Kit (Molecular devices).
Test compounds were diluted in 100% DMSO to 5 mM stock concentration, then further dilutions were made in H2O or 100% DMSO to desirable concentrations. Each reaction consisted of 5 nM enzyme: CDK9/CyclinT (Proqinase cat#0371-0345-1), 400 nM TAMRA-Rbtide (synthetic 15-mer peptide derived from human retinoblastoma tumor suppressor protein labeled with TAMRA dye, Genecust Europe), 12 μM ATP (=Kmapp, Sigma-Aldrich) and kinase buffer: 20 mM MOPS pH 7 (Sigma-Aldrich), 1 mM DTT (Sigma-Aldrich), 10 mM MgCl2 (Sigma-Aldrich), 0.01% Tween 20 (Sigma-Aldrich).
For each reaction, 4 or 6 μl containing TAMRA-Rbtide, ATP and kianse buffer were combined with 2 μl diluted compound in H2O or 0.028 μl compound in 100% DMSO. The kinase reaction was started by the addition of 2 μl diluted enzyme. The reaction was allowed to run for 1 hour at room temperature. The reaction was stopped by adding 15 μl IMAP beads (1:400 beads in progressive (100% buffer A) 1× buffer).

The subject of the next data set is Primary T cells. Briefly: Cytotoxicity, viability by flow cytometry. In kind it is cell-based. How it is done: Primary T cells are cultured and treated with different concentrations of the test compound. Viability is analysed by measuring through flow cytometry based techniques the percentage of viable cells, compared to untreated control=100%).
In general terms: In flow cytometry, cells or beads pass a laser one at a time.

The mark [2] stands for this setting: Table 4, toxic dose 50%, viable cells.

Like-named read-outs stand apart in the source and are kept apart here.

Sequence of human CDK9/CyclinT kinase complex (P50750 whole entry): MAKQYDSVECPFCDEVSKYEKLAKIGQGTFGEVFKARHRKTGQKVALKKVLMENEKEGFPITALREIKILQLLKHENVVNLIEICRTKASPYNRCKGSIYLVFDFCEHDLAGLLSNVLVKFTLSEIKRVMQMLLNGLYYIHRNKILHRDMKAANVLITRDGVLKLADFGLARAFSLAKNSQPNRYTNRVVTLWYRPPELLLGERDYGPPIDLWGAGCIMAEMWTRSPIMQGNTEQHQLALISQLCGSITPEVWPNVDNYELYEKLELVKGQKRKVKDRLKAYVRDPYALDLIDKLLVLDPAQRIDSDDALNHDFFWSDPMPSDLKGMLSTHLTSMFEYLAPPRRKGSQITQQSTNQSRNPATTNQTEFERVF
Sequence of human CDK9/CyclinT kinase complex (O60563 whole entry partner): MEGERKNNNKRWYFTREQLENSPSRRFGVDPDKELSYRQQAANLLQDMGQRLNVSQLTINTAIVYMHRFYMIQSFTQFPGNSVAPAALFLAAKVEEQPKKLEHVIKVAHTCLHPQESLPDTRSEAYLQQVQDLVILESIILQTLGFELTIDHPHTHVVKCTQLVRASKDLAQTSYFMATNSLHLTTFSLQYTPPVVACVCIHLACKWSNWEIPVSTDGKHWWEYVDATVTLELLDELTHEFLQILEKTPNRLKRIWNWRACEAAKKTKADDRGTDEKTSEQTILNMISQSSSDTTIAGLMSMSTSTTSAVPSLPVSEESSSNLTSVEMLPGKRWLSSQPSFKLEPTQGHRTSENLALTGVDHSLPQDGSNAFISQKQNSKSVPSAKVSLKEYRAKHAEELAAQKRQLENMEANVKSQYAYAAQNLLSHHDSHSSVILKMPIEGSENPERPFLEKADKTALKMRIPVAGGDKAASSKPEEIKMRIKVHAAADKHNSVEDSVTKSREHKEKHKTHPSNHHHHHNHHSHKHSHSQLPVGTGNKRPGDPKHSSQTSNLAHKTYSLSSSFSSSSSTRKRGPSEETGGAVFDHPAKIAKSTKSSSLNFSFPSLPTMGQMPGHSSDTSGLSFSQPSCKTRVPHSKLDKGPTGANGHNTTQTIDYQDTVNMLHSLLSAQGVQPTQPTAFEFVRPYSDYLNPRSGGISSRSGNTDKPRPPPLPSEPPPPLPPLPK

As usually defined, the IC50 is the midpoint of a concentration-inhibition curve. Take `COc1ccccc1-c1cc(Nc2ccc(N3CCN(C)CC3)c(Cn3cnc4ccccc43)c2)ncn1` [Example 2, N-(3-((1H-Benzo[d]imidazol-1-yl)methyl)-4-(4-methylpiperazin-1-yl)phenyl)-6-(2-methoxyphenyl)pyrimidin-4-amine]: the IC50 in data set [1] (Table 1) is below 100 nM. Further, the “TD50” value with Primary T cells is 0.4 µM.
The corresponding values for `COc1ccc(Nc2cc(-c3ccccc3OC)ncn2)cc1CNS(C)(=O)=O` [Example 4, N-(2-Methoxy-5-(6-(2-methoxyphenyl)pyrimidin-4-ylamino)benzyl)methanesulfonamide] are below 100 nM and 2.1 µM.
Consider `COc1ccccc1-c1cc(Nc2ccc(Cl)c(CO)c2)ncn1` [Example 6, (2-Chloro-5-(6-(2-methoxyphenyl)pyrimidin-4-ylamino)phenyl)methanol], for which, in data set [1] (Table 1), the IC50 is below 1000 nM. For the same compound, in the data set with Primary T cells, the “TD50” value is above 0.5 µM.
In turn, `COc1ccccc1-c1cc(Nc2ccc(Cl)c(C(=O)NN)c2)ncn1` [Example 7, 2-Chloro-5-(6-(2-methoxyphenyl)pyrimidin-4-ylamino)benzohydrazide] registered an IC50 in data set [1] (Table 1) below 100 nM. The “TD50” value in the data set on Primary T cells was above 5 µM.
Take `COc1ccc(Nc2cc(-c3ccccc3OC)ncn2)cc1OCCN1CCOCC1` [Example 8, N-(4-Methoxy-3-(2-morpholinoethoxy)phenyl)-6-(2-methoxyphenyl)pyrimidin-4-amine]: the IC50 in data set [1] (Table 1) was below 1000 nM. Moreover, the “TD50” value with Primary T cells (setting [2]) was above 1.5 µM.
For the compound `CCOC(=O)c1cc(Nc2cc(-c3ccccc3OC)ncn2)ccc1Cl` [Example 14, Ethyl 2-chloro-5-(6-(2-methoxyphenyl)pyrimidin-4-ylamino)benzoate], the IC50 in data set [1] is below 1000 nM. For the same compound, the “TD50” value with Primary T cells was above 0.5 µM.
On to `COc1ccccc1-c1cc(Nc2ccc(Cl)c(C(=O)N3CCCC3)c2)ncn1` [Example 15, (2-Chloro-5-(6-(2-methoxyphenyl)pyrimidin-4-ylamino)phenyl)(pyrrolidin-1-yl)methanone], for which the IC50 in data set [1] was below 1000 nM. In addition, in the data set with Primary T cells, the “TD50” value is above 0.5 µM.
Take `CCOC(=O)c1cc(Nc2cc(-c3ccccc3OC)ncn2)ccc1N1CCOCC1` [Example 18, Ethyl 5-(6-(2-methoxyphenyl)pyrimidin-4-ylamino)-2-morpholinobenzoate]: the IC50 in data set [1] (Table 1) is below 1000 nM. In the data set with Primary T cells, the “TD50” value is above 0.5 µM.
Compound `COc1ccccc1-c1cc(Nc2ccc(N3CCOCC3)c(CO)c2)ncn1` [Example 19, (5-(6-(2-Methoxyphenyl)pyrimidin-4-ylamino)-2-morpholinophenyl)methanol] gave an IC50 in data set [1] (Table 1) below 1000 nM. In addition, in the data set on Primary T cells, the “TD50” value was above 0.5 µM.
The compound `COc1ccccc1-c1cc(Nc2ccc(Cl)c(CN3C(=O)c4ccccc4C3=O)c2)ncn1` [Example 20, 2-(2-Chloro-5-(6-(2-methoxyphenyl)pyrimidin-4-ylamino)benzyl)isoindoline-1,3-dione] showed an IC50 in data set [1] below 10000 nM. Moreover, the “TD50” value in the data set on Primary T cells (setting [2]) is above 0.5 µM.
`COC(=O)c1cc(Nc2cc(-c3ccccc3OC)ncn2)ccc1O` [Example 21, Methyl 2-hydroxy-5-(6-(2-methoxyphenyl)pyrimidin-4-ylamino)benzoate]: in data set [1] (Table 1), the IC50 was below 1000 nM. For the same compound, the “TD50” value with Primary T cells is above 0.5 µM.
In the same order, the values of `COc1ccc(Nc2cc(-c3ccccc3OC)ncn2)cc1F` [Example 22, N-(3-Fluoro-4-methoxyphenyl)-6-(2-methoxyphenyl)pyrimidin-4-amine] are below 1000 nM and above 0.5 µM.
Regarding `COc1ccc(Nc2cc(-c3ccccc3OC)ncn2)cc1C(=O)NCc1ccccc1` [Example 23, N-Benzyl-2-methoxy-5-(6-(2-methoxyphenyl)pyrimidin-4-ylamino)benzamide], in data set [1] (Table 1), the IC50 is below 1000 nM. For the same compound, the “TD50” value in the data set with Primary T cells is above 0.5 µM.
As for `COc1ccc(Nc2cc(-c3ccccc3OC)ncn2)cc1CO` [Example 24, (2-Methoxy-5-(6-(2-methoxyphenyl)pyrimidin-4-ylamino)phenyl)methanol], in data set [1] (Table 1), the IC50 is below 1000 nM. The “TD50” value in the data set on Primary T cells is above 0.5 µM.
The corresponding values for `CNC(=O)c1cc(Nc2cc(-c3ccccc3OC)ncn2)ccc1OC` [Example 25, 2-Methoxy-5-(6-(2-methoxyphenyl)pyrimidin-4-ylamino)-N-methylbenzamide] are below 1000 nM and above 0.5 µM.
Regarding `COc1ccc(Nc2cc(-c3ccccc3OC)ncn2)cc1NC(=O)OCC(Cl)(Cl)Cl` [Example 27, 2,2,2-Trichloroethyl 2-methoxy-5-(6-(2-methoxyphenyl)pyrimidin-4-ylamino)phenylcarbamate], the IC50 in data set [1] was below 10000 nM. Moreover, the “TD50” value with Primary T cells (setting [2]) was above 0.5 µM.
In turn, `COc1ccc(Nc2cc(-c3ccccc3OC)ncn2)cc1C(=O)NCc1ccncc1` [Example 28, 2-Methoxy-5-(6-(2-methoxyphenyl)pyrimidin-4-ylamino)-N-(pyridin-4-ylmethyl)benzamide] came in with an IC50 in data set [1] below 1000 nM. Also, the “TD50” value in the data set with Primary T cells is above 0.5 µM.
Turning to `COc1ccc(Nc2cc(-c3ccccc3OC)ncn2)cc1C=O` [Example 29, 2-Methoxy-5-(6-(2-methoxyphenyl)pyrimidin-4-ylamino)benzaldehyde], the IC50 in data set [1] (Table 1) was below 1000 nM. For the same compound, the “TD50” value with Primary T cells is above 0.5 µM.
The compound `COC(=O)c1cc(Nc2cc(-c3ccccc3OC)ncn2)ccc1OC` [Example 30, Methyl 2-methoxy-5-(6-(2-methoxyphenyl)pyrimidin-4-ylamino)benzoate] displayed an IC50 in data set [1] (Table 1) below 100 nM. For the same compound, the “TD50” value in the data set on Primary T cells was above 0.5 µM.
The corresponding values for `COc1ccc(Nc2cc(-c3ccccc3OC)ncn2)cc1C(=O)NN` [Example 33, 2-Methoxy-5-(6-(2-methoxyphenyl)pyrimidin-4-ylamino)benzohydrazide] are below 100 nM and above 5 µM.
Compound `COc1ccc(Nc2cc(-c3ccccc3OC)ncn2)cc1CNc1ccccc1` [Example 34, N-(4-Methoxy-3-((phenylamino)methyl)phenyl)-6-(2-methoxyphenyl)pyrimidin-4-amine] yielded an IC50 in data set [1] below 10000 nM. In addition, the “TD50” value with Primary T cells was above 5 µM.
In the case of `COc1ccc(Nc2cc(-c3ccccc3OC)ncn2)cc1OCc1ccccc1` [Example 36, N-(3-(Benzyloxy)-4-methoxyphenyl)-6-(2-methoxyphenyl)pyrimidin-4-amine], the IC50 in data set [1] was below 10000 nM. Also, in the data set with Primary T cells (setting [2]), the “TD50” value was above 5 µM.
For the compound `COc1ccccc1-c1cc(Nc2ccc(N3CCN(C)CC3)c(S(N)(=O)=O)c2)ncn1` [Example 38, 5-(6-(2-Methoxyphenyl)pyrimidin-4-ylamino)-2-(4-methylpiperazin-1-yl)benzenesulfonamide], in data set [1] (Table 1), the IC50 is below 100 nM. The “TD50” value in the data set with Primary T cells was below 1.5 µM.
Compound `CCOc1ccc(Nc2cc(-c3ccccc3OC)ncn2)cc1Cn1cnc2ccccc21` [Example 39, N-(3-((1H-Benzo[d]imidazol-1-yl)methyl)-4-ethoxyphenyl)-6-(2-methoxyphenyl)pyrimidin-4-amine] had an IC50 in data set [1] (Table 1) below 100 nM. The “TD50” value with Primary T cells came to 0.6 µM.
Take `COc1ccccc1-c1cc(Nc2ccc(F)c(Cn3cnc4ccccc43)c2)ncn1` [Example 40, N-(3-((1H-Benzo[d]imidazol-1-yl)methyl)-4-fluorophenyl)-6-(2-methoxyphenyl)pyrimidin-4-amine]: the IC50 in data set [1] (Table 1) is below 100 nM. Besides, the “TD50” value with Primary T cells is 0.4 µM.
In data set [1], `COc1ccccc1-c1cc(Nc2ccc(Cl)c(C(N)=O)c2)ncn1` [Example 44, 2-Chloro-5-(6-(2-methoxyphenyl)pyrimidin-4-ylamino)benzamide] showed an IC50 below 1000 nM. Moreover, in the data set with Primary T cells, the “TD50” value was above 5 µM.
For `COc1ccc(Nc2cc(-c3ccccc3OC)ncn2)cc1C(=O)N(C)N` [Example 46, 2-Methoxy-5-[6-(2-methoxy-phenyl)-pyrimidin-4-ylamino]-benzoic acid N-methyl-hydrazide], the IC50 in data set [1] (Table 1) and in data set [1] (Table 5) was below 1000 nM throughout. The “TD50” value in the data set on Primary T cells (setting [2]) and with Primary T cells (Table 5) was above 10 µM in each case.
Compound `COc1ccc(-c2cc(Nc3ccc(OC)c(N)c3)ncn2)cc1` [Example 66, 4-Methoxy-N^1-[6-(4-methoxy-phenyl)-pyrimidin-4-yl]-benzene-1,3-diamine] showed an IC50 in data set [1] above 10000 nM. For the same compound, the “TD50” value with Primary T cells was above 10 µM.
Compound `COc1cccc(-c2cc(Nc3ccc(OC)c(N)c3)ncn2)c1` [Example 68, 4-Methoxy-N^1-[6-(3-methoxy-phenyl)-pyrimidin-4-yl]-benzene-1,3-diamine] gave an IC50 in data set [1] (Table 1) above 10000 nM. Also, in the data set with Primary T cells, the “TD50” value is above 10 µM.
Take `COc1ccc(Nc2cc(-c3ccccc3O)ncn2)cc1N` [Example 70, 2-[6-(3-Amino-4-methoxy-phenylamino)-pyrimidin-4-yl]-phenol]: the IC50 in data set [1] (Table 1) was above 10000 nM. Moreover, the “TD50” value with Primary T cells is above 10 µM.
Take `COc1ccc(Nc2cc(-c3ccccc3OCc3ccccc3)ncn2)cc1N` [Example 71, N^1-[6-(2-Benzyloxy-phenyl)-pyrimidin-4-yl]-4-methoxy-benzene-1,3-diamine]: the IC50 in data set [1] (Table 1) and in data set [1] (Table 5) was below 1000 nM in each case. Moreover, the “TD50” value with Primary T cells is above 10 µM.
`COc1ccc(Nc2cc(-c3ccccc3Oc3ccccc3)ncn2)cc1N` [Example 77, 4-Methoxy-N^1-[6-(2-phenoxy-phenyl)-pyrimidin-4-yl]-benzene-1,3-diamine] yielded an IC50 in data set [1] (Table 1) below 10000 nM. In the data set on Primary T cells, the “TD50” value is 10 µM.
